Laboratory results as given in US11986530B2, “Drug composition for parenteral administration” (THERABIOPHARMA INC., priority 2016, dated 2024).
Values belong to the compound of their own block, whether it stands above or below them.

Columns and labels:
[1] = system: A549; details: A549, in vitro; cited from earlier work
[2] = system: Jurkat cells; details: in vitro; cited from earlier work
[3] = system: U266; details: U266, in vitro; cited from earlier work
[4] = system: β-glucuronidase; details: 10 μL of 2.45 μg/mL substrate, pH 5.0, 37° C., 1 hour, n=3
Experimental: In this regard, as a control, curcumin monoglucuronide was used for the examination.
In addition, as the curcumin diglucuronide, commercially available curcumin diglucuronide (manufactured by SynInnova Laboratories Inc.) was used.
Next, into the resultant mixture, 0.5 mL of chloroform was added, and the mixture was stirred for 1 minute with a vortex mixer, and then the stirred mixture was treated for 15 minutes by using an ultrasonic generator, and the treated mixture was fractionated into a chloroform layer and a water layer by centrifugation (10,000×g, for 5 minutes, at room temperature). Further, this fractionation process was repeated twice. After that, the chloroform layer was collected, and dried and solidified by distilling off the solvent with a vacuum centrifugal concentrator, and to the dried and solidified matter, 100 μL of 50% (v/v) methanol was added, and then the resultant mixture was centrifuged (10,000×g, for 5 minutes, at room temperature) to collect a supernatant liquid, and the collected supernatant liquid was taken as an enzyme-treated sample.
In 2 μL of the enzyme-treated sample prepared in the above (2), free curcumin was measured by the method described in “b.

[5] = system: KBM-5; details: KBM-5, in vitro; cited from earlier work
[6] = Intravenous administration test: concentration of curcumin conjugates and free curcumin in plasma; assay type: in vivo, SD rats; details: rat
Experimental: As the test animals, 9-week old SD rats (male, with a body weight of 330 to 360 g, CHARLES RIVER LABORATORIES JAPAN, INC.) were used.
The intravenous administration was performed as follows: a predetermined amount of the curcumin monoglucuronide prepared in Production Example 1 was dissolved into water for injection so as to be 30 mg/kg; and the obtained preparation was administered intravenously to each of the test animals (n=5) fasted for 12 hours or more before the administration via an indwelling catheter in the femoral artery of each of the test animals. In this regard, the catheter was indwelled in the femoral artery under isoflurane anesthesia on the day of administration and blood collection.
Blood was collected via a catheter from the femoral artery of each of test animals by using a heparin-treated syringe under the restraint condition in a Ballman cage without anesthesia. In this regard, around 0.6 mL of blood was collected after each lapse of 1, 3, 5, 10, 15, 30, 60, 120, 240 and 480 minutes from the start of intravenous administration, and the collected blood was centrifuged (at 3,000 rpm, for 10 minutes, at 4° C.) to obtain the plasma.
The concentration of each of the curcumin conjugate and free curcumin in plasma was determined by the following methods.
Further, this fractionation process was repeated twice.
In this regard, in the following test, a supernatant liquid prepared by using a β-glucuronidase solution was used as an enzyme-treated sample, and a supernatant liquid prepared by using distilled water in place of the β-glucuronidase solution was used as a non-enzyme-treated sample.
By analyzing 2 μL of the enzyme-treated or non-enzyme-treated sample prepared in the above-described “a. Pretreatment” using LC-MS/MS (manufactured by Shimadzu Corporation), the concentration of each of the curcumin conjugate and free curcumin in plasma was determined.
That is, by measuring the concentration of the curcumin contained in the enzyme-treated sample that had been obtained by the treatment with β-glucuronidase, the total concentration of curcumin in plasma was measured.
On the other hand, by measuring the concentration of the curcumin in the non-enzyme-treated sample that had not been treated with β-glucuronidase, the concentration of free curcumin in plasma was measured.
Further, by subtracting the concentration of free curcumin from the total concentration of curcumin, the concentration of the curcumin conjugates contained in plasma was calculated.
In this regard, the LC-MS/MS analysis conditions were set to be a LC column of Atlantis T3 (2.1×150 mm, 3 μm, manufactured by Waters), a column temperature of 40° C., a flow rate of 0.2 mL/min, and a mobile phase of A of a 0.1% formic acid aqueous solution and B of 0.1% formic acid/acetonitrile, and the gradient elution was performed under the following conditions (Table 1). In addition, the MS analysis conditions were set to be an ionization mode of […] (ESI), Positive, a measurement mode of Multiple Reaction Monitoring (MRM), curcumin of 369.1→177.2 (m/z), and mepronil of 270→119 (m/z), and the evaluation was performed.

[7] = system: colorectal cancer cells derived from adult human colon HCT116; assay: Anti-tumor effect by intravenous administration of curcumin conjugates (tumor size, HCT116 transplanted mice); assay type: in vivo, BALB/cAnNcr j-nu/nu (homo) mice; details: parenteral (i.v.) administration, 30 or 90 mg/kg, versus control group
From the text: 1×10^7 or 4×10^6 colorectal cancer cells derived from adult human […] colon HCT116 (ATCC No. CCL-247) were transplanted subcutaneously into the flank of each of the test animals by using a 27 G injection needle.
In this regard, in the control group, mice to which water for injection excluding curcumin monoglucuronide had been administered intravenously were used.
For the tumor size, after each lapse of 0, 4, 7, 11 and 14 days from the start of administration or after each lapse of 0, 4, 7, 11, 14, 18 and 21 days from the start of administration, the length, width and height of the tumor were measured by using a vernier caliper, and the tumor size was calculated by the following equation. Tumor size (mm^3)=length×width×height×0.5 (5) Concentration of Curcumin Conjugates and Free Curcumin in Tumor Tissue

[8] = Concentration of curcumin conjugates and free curcumin in tumor tissue; assay type: in vivo, BALB/cAnNcr j-nu/nu (homo) mice; details: mouse, day 21
Experimental: For the mice (n=8) inoculated with the 4×10^6 cancer cells (HCT116), the tumor after the lapse of 2 hours from the intravenous administration of curcumin monoglucuronide (90 mg/kg) after the lapse of 21 days from the start of inoculation was removed from each of the mice, the removed tumor was rinsed with a saline solution, and then immediately frozen in liquid nitrogen, and the frozen tumor was stored in an ultra-low temperature tank at −80° C.
The frozen and stored tumor was thawed while cooling in ice, an adequate amount of a saline solution was added to the thawed tumor, and the thus obtained tumor was homogenized with a glass homogenizer, the concentration of each of the curcumin conjugates and free curcumin in the pulverized tumor obtained as described above were measured to examine the concentration of each of the curcumin conjugates and free curcumin contained in the tumor tissue.

[9] = cited from earlier work
[10] = system: human hepatocellular carcinoma cell lines (HepG2 cells); details: cited from earlier work

Compound: COc1cc(/C=C/C(=O)CC(=O)/C=C/c2ccc(O[C@@H]3O[C@H](C(=O)O)[C@@H](O)[C@H](O)[C@H]3O)c(OC)c2)ccc1O[C@@H]1O[C@H](C(=O)O)[C@@H](O)[C@H](O)[C@H]1O [curcumin diglucuronide]
- cell growth inhibitory effect [1]: there is no such an effect
- cell growth inhibitory effect [2]: there is no such an effect
- cell growth inhibitory effect [3]: there is no such an effect
- concentration of the curcumin contained in the enzyme-treated sample [4]: 82.4 ± 0.8 ng/mL
- cell growth inhibitory effect [5]: there is no such an effect

- Cmax (ng/mL) of curcumin conjugates in plasma ([6]; 30 mg/kg i.v.): 160492 ± 19156 ng/mL
- AUC 0.02-8 h (ng·h/mL) of free curcumin in plasma ([6]; 30 mg/kg i.v. of conjugate): 2780 ± 962 ng·h/mL
- Cmax (ng/mL) of free curcumin in plasma ([6]; 30 mg/kg i.v. of conjugate): 10143 ± 3832 ng/mL
- concentration of free curcumin in plasma ([6]; 30 mg/kg i.v. of conjugate, 1 minute after administration): 10143 ± 3832 ng/mL
- concentration of free curcumin in plasma ([6]; 30 mg/kg i.v. of conjugate, 3 minutes): 7562 ± 2903 ng/mL
- concentration of free curcumin in plasma ([6]; 30 mg/kg i.v. of conjugate, 5 minutes): 5707 ± 2539 ng/mL
- concentration of free curcumin in plasma ([6]; 30 mg/kg i.v. of conjugate, 10 minutes): 3596 ± 1233 ng/mL
- concentration of free curcumin in plasma ([6]; 30 mg/kg i.v. of conjugate, 15 minutes): 2764 ± 796 ng/mL
- concentration of free curcumin in plasma ([6]; 30 mg/kg i.v. of conjugate, 30 minutes): 1605 ± 592 ng/mL
- concentration of free curcumin in plasma ([6]; 30 mg/kg i.v. of conjugate, 1 hour): 568 ± 197 ng/mL
- concentration of free curcumin in plasma ([6]; 30 mg/kg i.v. of conjugate, 2 hours): 117 ± 39 ng/mL
- concentration of free curcumin in plasma ([6]; 30 mg/kg i.v. of conjugate, 4 hours): 16 ± 5 ng/mL
- concentration of free curcumin in plasma ([6]; 30 mg/kg i.v. of conjugate, 8 hours): 6 ± 14 ng/mL
- concentration of curcumin conjugates in plasma ([6]; 30 mg/kg i.v., 1 minute after administration): 160492 ± 19156 ng/mL
- concentration of curcumin conjugates in plasma ([6]; 30 mg/kg i.v., 3 minutes): 77803 ± 6442 ng/mL
- concentration of curcumin conjugates in plasma ([6]; 30 mg/kg i.v., 5 minutes): 80489 ± 7161 ng/mL
- concentration of curcumin conjugates in plasma ([6]; 30 mg/kg i.v., 10 minutes): 46853 ± 10700 ng/mL
- concentration of curcumin conjugates in plasma ([6]; 30 mg/kg i.v., 15 minutes): 22918 ± 5271 ng/mL
- concentration of curcumin conjugates in plasma ([6]; 30 mg/kg i.v., 30 minutes): 10191 ± 3502 ng/mL
- concentration of curcumin conjugates in plasma ([6]; 30 mg/kg i.v., 1 hour): 4363 ± 1354 ng/mL
- concentration of curcumin conjugates in plasma ([6]; 30 mg/kg i.v., 2 hours): 1493 ± 371 ng/mL
- concentration of curcumin conjugates in plasma ([6]; 30 mg/kg i.v., 4 hours): 403 ± 120 ng/mL
- concentration of curcumin conjugates in plasma ([6]; 30 mg/kg i.v., 8 hours): 78 ± 39 ng/mL
- concentration of the free curcumin in the tumor tissue ([8]; 2 hours after 90 mg/kg i.v. of conjugate): 1464.5 ± 840.9 ng/g
- concentration of the curcumin conjugates in the tumor tissue ([8]; 2 hours after 90 mg/kg i.v.): 605.4 ± 465.5 ng/g
Compound: COc1cc(/C=C/C(=O)CC(=O)/C=C/c2ccc(O[C@@H]3O[C@H](C(=O)O)[C@@H](O)[C@H](O)[C@H]3O)c(OC)c2)ccc1O [curcumin monoglucuronide]
- effect on tumor growth (in words) [7]: significantly suppressing the tumor growth

Compound: COc1cc(/C=C/C(=O)/C=C(O)/C=C/c2ccc(O)c(OC)c2)ccc1O [curcumin]
- solubility in water [9]: hardly soluble in water
- cell growth inhibitory effect [1]: has an effect of suppressing the growth of these cells
- cell growth inhibitory effect [2]: has an effect of suppressing the growth of these cells
- cell growth inhibitory effect [3]: has an effect of suppressing the growth of these cells
- cell growth inhibitory effect [10]: found the cell growth inhibitory effect
- cell growth inhibitory effect [5]: has an effect of suppressing the growth of these cells
